These results are taken from US11254686B1 (Corvus Pharmaceuticals, Inc., priority 2017, dated 2022).

The target in one data set is adenosine A2B receptor (Homo sapiens (Human), UniProt P29275). Briefly: Adenosine receptor activity assay (Table 1), A2B activity. The conditions noted are these: for Ratio: A2A activity to A2B activity (A2A/A2B); for IC50: read-out: Ave A2B cAMP IC50. In kind it is biochemical.
Another data set has as its target adenosine A2A receptor (Homo sapiens (Human), UniProt P29274). Briefly: Adenosine receptor activity assay (Table 1), A2A activity. It counts as biochemical. The conditions noted are these: read-out: Ave A2A cAMP IC50.
The target in the next data set is adenosine A1 receptor (Homo sapiens (Human), UniProt P30542). Briefly: Adenosine receptor activity assay (Table 1), A1 cAMP. In kind it is cell-based.
adenosine A1 receptor, sequence (P30542 whole entry): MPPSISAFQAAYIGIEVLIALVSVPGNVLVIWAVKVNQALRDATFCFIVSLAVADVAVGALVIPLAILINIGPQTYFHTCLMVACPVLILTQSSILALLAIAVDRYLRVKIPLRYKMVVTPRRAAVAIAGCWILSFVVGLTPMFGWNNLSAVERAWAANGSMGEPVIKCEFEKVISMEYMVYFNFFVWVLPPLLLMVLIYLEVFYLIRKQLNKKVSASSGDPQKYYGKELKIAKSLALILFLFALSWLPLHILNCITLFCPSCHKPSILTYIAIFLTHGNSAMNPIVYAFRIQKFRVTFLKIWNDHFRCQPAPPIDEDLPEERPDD
The next data set concerns the target adenosine A3 receptor (Homo sapiens (Human), UniProt P0DMS8). Briefly: Adenosine receptor activity assay (Table 1), A3 cAMP. It counts as cell-based.
The subject of data set [1] is CYP 450 (isoform not given). Briefly: CYP450 inhibition at 10 μM. In kind it is in vitro ADME. To be noted: read-out: CYP 450 % INH @ 10 μM.
Data set [2] can be described thus: Hepatocyte intrinsic clearance, rat. It counts as in vitro ADME. To be noted: hepatocytes.
Data set [3] in a line: Hepatocyte intrinsic clearance, human. In kind it is in vitro ADME. The conditions noted are these: hepatocytes.

Structures are written as SMILES.

adenosine A2A receptor, sequence (P29274 whole entry): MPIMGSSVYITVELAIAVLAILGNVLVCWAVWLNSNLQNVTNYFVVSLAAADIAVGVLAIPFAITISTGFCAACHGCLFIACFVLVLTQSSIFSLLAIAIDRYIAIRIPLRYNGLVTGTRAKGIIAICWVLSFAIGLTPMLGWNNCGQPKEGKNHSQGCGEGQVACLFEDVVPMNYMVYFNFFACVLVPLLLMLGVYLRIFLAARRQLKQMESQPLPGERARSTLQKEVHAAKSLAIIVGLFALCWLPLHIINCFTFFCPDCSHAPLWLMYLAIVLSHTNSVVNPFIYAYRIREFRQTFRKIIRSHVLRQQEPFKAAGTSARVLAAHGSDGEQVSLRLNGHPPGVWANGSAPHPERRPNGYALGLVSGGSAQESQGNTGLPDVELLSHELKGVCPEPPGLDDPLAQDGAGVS
adenosine A3 receptor, sequence (P0DMS8 whole entry, canonical isoform): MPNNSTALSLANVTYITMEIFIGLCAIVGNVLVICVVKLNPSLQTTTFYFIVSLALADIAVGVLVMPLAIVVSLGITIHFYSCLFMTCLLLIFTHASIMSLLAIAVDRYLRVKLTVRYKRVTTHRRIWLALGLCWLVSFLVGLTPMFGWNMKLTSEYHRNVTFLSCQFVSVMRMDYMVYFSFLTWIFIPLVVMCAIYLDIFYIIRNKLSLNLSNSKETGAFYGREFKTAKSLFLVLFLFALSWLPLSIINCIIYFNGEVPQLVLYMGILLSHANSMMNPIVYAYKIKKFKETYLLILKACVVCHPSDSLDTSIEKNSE
adenosine A2B receptor, sequence (P29275 whole entry): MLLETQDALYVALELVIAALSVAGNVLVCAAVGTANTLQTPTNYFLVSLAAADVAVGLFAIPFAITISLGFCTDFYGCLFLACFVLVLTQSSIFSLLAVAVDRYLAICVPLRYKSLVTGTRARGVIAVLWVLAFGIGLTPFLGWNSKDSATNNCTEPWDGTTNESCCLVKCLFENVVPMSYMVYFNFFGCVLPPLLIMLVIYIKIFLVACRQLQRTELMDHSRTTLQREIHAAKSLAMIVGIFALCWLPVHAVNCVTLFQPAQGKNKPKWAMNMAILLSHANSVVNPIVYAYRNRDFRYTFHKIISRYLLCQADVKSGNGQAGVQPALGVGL

One may read the IC50 as the concentration at which inhibition is half-maximal. Usually hepatocyte CLint stands for a measure of how fast metabolising enzymes remove a compound, apart from limits set by blood flow. A higher hepatocyte CLint goes with faster metabolism. Regarding `C[C@H](Nc1nc(C(=O)N2CC(O)C2)c2sccc2n1)c1cncc(F)c1` [Example Z198, (S)-(2-((1-(5-Fluoropyridin-3-yl)ethyl)amino)thieno[3,2-d]pyrimidin-4-yl)(3-hydroxyazetidin-1-yl)methanone], the Ratio on adenosine A2B receptor is on record as 52.81. Also, the IC50 is less than 10 nM on adenosine A2B receptor, 100 to 500 nM at adenosine A2A receptor, more than 500 nM against adenosine A1 receptor and more than 500 nM on adenosine A3 receptor. Besides, the inhibition at 10 µM in data set [1] amounted to 27%. Also, the values for the hepatocyte CLint in data set [2] and in data set [3] were 20.6 µL/min/1e6 cells and 6.78 µL/min/1e6 cells, respectively.
Turning to `CNc1cc2nc(N[C@@H](C)c3cncc(F)c3)nc(C(=O)N3CCCC3)c2s1` [Example Z210, (S)-(2-((1-(5-Fluoropyridin-3-yl)ethyl)amino)-6-(methylamino)thieno[3,2-d]pyrimidin-4-yl)(pyrrolidin-1-yl)methanone], the Ratio on adenosine A2B receptor stood at 162.88. For the same compound, the IC50 at adenosine A2B receptor is less than 10 nM; on adenosine A2A receptor, 100 to 500 nM; at adenosine A1 receptor, more than 500 nM; on adenosine A3 receptor it was 50 to 100 nM. In addition, in data set [1], the inhibition at 10 µM was 46%. Moreover, the hepatocyte CLint in data set [2] turned out to be 51.7 µL/min/1e6 cells; in data set [3], 20.3 µL/min/1e6 cells.
Consider `CNc1cc2nc(N[C@@H](C)c3cncc(F)c3)nc(C(=O)N3CCC3)c2s1` [Example Z211, (S)-Azetidin-1-yl(2-((1-(5-fluoropyridin-3-yl)ethyl)amino)-6-(methylamino)thieno[3,2-d]pyrimidin-4-yl)methanone], for which the Ratio on adenosine A2B receptor is given as 201.82. For the same compound, the IC50 at adenosine A2B receptor is less than 10 nM; on adenosine A2A receptor, 100 to 500 nM; on adenosine A1 receptor, more than 500 nM; on adenosine A3 receptor, 50 to 100 nM. In data set [1], the inhibition at 10 µM is 67%. The hepatocyte CLint in data set [2] worked out at 53.2 µL/min/1e6 cells; in data set [3], 15.8 µL/min/1e6 cells.
In the case of `Cc1cc2nc(N[C@@H](C)c3cccnc3)nc(C(=O)N3CCCC3)c2s1` [Example Z213, (S)-(6-Methyl-2-((1-(pyridin-3-yl)ethyl)amino)thieno[3,2-d]pyrimidin-4-yl)(pyrrolidin-1-yl)methanone], the Ratio on adenosine A2B receptor came out at 127.82. Moreover, the IC50 was less than 10 nM on adenosine A2B receptor, 100 to 500 nM at adenosine A2A receptor, more than 500 nM on adenosine A1 receptor and more than 500 nM against adenosine A3 receptor. In addition, the inhibition at 10 µM in data set [1] worked out at 90%. The figures for the hepatocyte CLint in data set [2] and in data set [3] were 25.3 µL/min/1e6 cells and 59.6 µL/min/1e6 cells, respectively.
As to `CNc1cc2nc(N[C@@H](C)c3cncc(F)c3)nc(C(=O)N3CC[C@@H](O)C3)c2s1` [Example Z224, (2-(((S)-1-(5-Fluoropyridin-3-yl)ethyl)amino)-6-(methylamino)thieno[3,2-d]pyrimidin-4-yl)((R)-3-hydroxypyrrolidin-1-yl)methanone], the Ratio on adenosine A2B receptor was 340.19. The IC50 at adenosine A2B receptor was less than 10 nM; on adenosine A2A receptor, more than 500 nM; at adenosine A1 receptor, more than 500 nM; at adenosine A3 receptor, 50 to 100 nM. Besides, the inhibition at 10 µM in data set [1] is 52.5%. In addition, the hepatocyte CLint worked out at 4.61 µL/min/1e6 cells in data set [2] and 16.1 µL/min/1e6 cells in data set [3].
`C[C@H](Nc1nc(C(=O)N2CC[C@H](F)C2)c2sccc2n1)c1cncc(F)c1` [Example Z225, (2-(((S)-1-(5-Fluoropyridin-3-yl)ethyl)amino)thieno[3,2-d]pyrimidin-4-yl)((S)-3-fluoropyrrolidin-1-yl)methanone]: on adenosine A2B receptor, the Ratio worked out at 43.99. The IC50 at adenosine A2B receptor is less than 10 nM; on adenosine A2A receptor it was 100 to 500 nM; at adenosine A1 receptor it was more than 500 nM; on adenosine A3 receptor, more than 500 nM. In data set [1], the inhibition at 10 µM was determined as 57%. The hepatocyte CLint in data set [2] was 21.1 µL/min/1e6 cells; in data set [3], 44.5 µL/min/1e6 cells.
In the case of `C[C@H](Nc1nc(C(=O)N2CCCC2)c2sccc2n1)c1cncc(Cl)c1` [Example Z231, (S)-(2-((1-(5-Chloropyridin-3-yl)ethyl)amino)thieno[3,2-d]pyrimidin-4-yl)(pyrrolidin-1-yl)methanone], on adenosine A2B receptor, the Ratio worked out at 88.17. The half-maximal inhibitory concentration (IC50) is less than 10 nM on adenosine A2B receptor, 100 to 500 nM at adenosine A2A receptor, more than 500 nM against adenosine A1 receptor and more than 500 nM on adenosine A3 receptor. Further, the inhibition at 10 µM in data set [1] worked out at 75%. The hepatocyte CLint in data set [2] was determined as 41.1 µL/min/1e6 cells; in data set [3], 72.7 µL/min/1e6 cells.
On to `CO[C@@H]1CCN(C(=O)c2nc(N[C@@H](C)c3cncc(F)c3)nc3ccsc23)C1` [Example Z251, (2-(((S)-1-(5-Fluoropyridin-3-yl)ethyl)amino)thieno[3,2-d]pyrimidin-4-yl)((R)-3-methoxypyrrolidin-1-yl)methanone], for which the Ratio on adenosine A2B receptor was 19.74. For the same compound, the IC50 on adenosine A2B receptor is less than 10 nM; at adenosine A2A receptor it was 100 to 500 nM; against adenosine A1 receptor, more than 500 nM; on adenosine A3 receptor it was more than 500 nM. Moreover, the inhibition at 10 µM in data set [1] was 49.1%.
Turning to `CO[C@H]1CCN(C(=O)c2nc(N[C@@H](C)c3cncc(F)c3)nc3ccsc23)C1` [Example Z252, (2-(((S)-1-(5-Fluoropyridin-3-yl)ethyl)amino)thieno[3,2-d]pyrimidin-4-yl)((S)-3-methoxypyrrolidin-1-yl)methanone], the Ratio on adenosine A2B receptor is 19.78. In addition, the IC50 was 10 to 50 nM on adenosine A2B receptor, 100 to 500 nM on adenosine A2A receptor, more than 500 nM on adenosine A1 receptor and more than 500 nM on adenosine A3 receptor. For the same compound, in data set [1], the inhibition at 10 µM was determined as 55.9%.
For `Cc1cc2nc(N[C@@H](C)c3cccnc3)nc(C(=O)N3CC[C@@H](O)C3)c2s1` [Example Z281, ((R)-3-Hydroxypyrrolidin-1-yl)(6-methyl-2-(((S)-1-(pyridin-3-yl)ethyl)amino)thieno[3,2-d]pyrimidin-4-yl)methanone], the Ratio on adenosine A2B receptor is 88.64. Further, the IC50 at adenosine A2B receptor was 10 to 50 nM; at adenosine A2A receptor, more than 500 nM; against adenosine A1 receptor, more than 500 nM; on adenosine A3 receptor, more than 500 nM. The hepatocyte CLint amounted to 18.6 µL/min/1e6 cells in data set [2] and 5.45 µL/min/1e6 cells in data set [3].
As for `Cc1cc2nc(N[C@@H](C)c3ccccn3)nc(C(=O)N3CC[C@H](O)C3)c2s1` [Example Z282, ((S)-3-Hydroxypyrrolidin-1-yl)(6-methyl-2-(((S)-1-(pyridin-2-yl)ethyl)amino)thieno[3,2-d]pyrimidin-4-yl)methanone], at adenosine A2B receptor, the Ratio was 77.76. The IC50 at adenosine A2B receptor was 10 to 50 nM; at adenosine A2A receptor it was more than 500 nM; on adenosine A1 receptor, more than 500 nM; against adenosine A3 receptor, more than 500 nM. Also, in data set [1], the inhibition at 10 µM is -18.8%. The hepatocyte CLint in data set [2] is 17.2 µL/min/1e6 cells; in data set [3], 4.11 µL/min/1e6 cells.
Consider `Cc1cc2nc(N[C@@H](C)c3cccnc3)nc(C(=O)N3CCC3)c2s1` [Example Z283, (S)-Azetidin-1-yl(6-methyl-2-((1-(pyridin-3-yl)ethyl)amino)thieno[3,2-d]pyrimidin-4-yl)methanone], for which the Ratio on adenosine A2B receptor came out at 54.37. For the same compound, the IC50 at adenosine A2B receptor is less than 10 nM; at adenosine A2A receptor, 100 to 500 nM; on adenosine A1 receptor, more than 500 nM; at adenosine A3 receptor, more than 500 nM. Also, the inhibition at 10 µM in data set [1] is 80.5%. In addition, the hepatocyte CLint stood at 42.7 µL/min/1e6 cells in data set [2] and 26.5 µL/min/1e6 cells in data set [3].
Regarding `C[C@H](Nc1nc(C(=O)N2CC[C@H](CO)C2)c2sccc2n1)c1cncc(F)c1` [Example Z294, (2-(((S)-1-(5-Fluoropyridin-3-yl)ethyl)amino)thieno[3,2-d]pyrimidin-4-yl)((S)-3-(hydroxymethyl)pyrrolidin-1-yl)methanone], the Ratio on adenosine A2B receptor is given as 84.08. The IC50 was less than 10 nM on adenosine A2B receptor, 100 to 500 nM at adenosine A2A receptor, more than 500 nM on adenosine A1 receptor and more than 500 nM at adenosine A3 receptor. Also, in data set [1], the inhibition at 10 µM amounted to 37.6%. Moreover, the hepatocyte CLint was 17.2 µL/min/1e6 cells in data set [2] and 15.6 µL/min/1e6 cells in data set [3].
With `Cc1cc2nc(N[C@@H](C)c3cccnc3)nc(C(=O)N3CC[C@H](O)C3)c2s1` [Example Z297, ((S)-3-Hydroxypyrrolidin-1-yl)(6-methyl-2-(((S)-1-(pyridin-3-yl)ethyl)amino)thieno[3,2-d]pyrimidin-4-yl)methanone], the Ratio on adenosine A2B receptor is 227.82. The IC50 at adenosine A2B receptor was less than 10 nM; at adenosine A2A receptor it was more than 500 nM; against adenosine A1 receptor, more than 500 nM; against adenosine A3 receptor, more than 500 nM. Besides, the hepatocyte CLint in data set [2] turned out to be 22.6 µL/min/1e6 cells; in data set [3], 3.47 µL/min/1e6 cells.
For the compound `Cc1cc2nc(N[C@@H](C)c3ccccn3)nc(C(=O)N3CC[C@@H](O)C3)c2s1` [Example Z298, ((R)-3-Hydroxypyrrolidin-1-yl)(6-methyl-2-(((S)-1-(pyridin-2-yl)ethyl)amino)thieno[3,2-d]pyrimidin-4-yl)methanone], the Ratio at adenosine A2B receptor was 64.00. For the same compound, the IC50 at adenosine A2B receptor was less than 10 nM; at adenosine A2A receptor, 100 to 500 nM; at adenosine A1 receptor it was more than 500 nM; against adenosine A3 receptor it was more than 500 nM. Besides, the inhibition at 10 µM in data set [1] is -13.9%. Besides, the results for the hepatocyte CLint in data set [2] and in data set [3] were 18.8 µL/min/1e6 cells and 5.35 µL/min/1e6 cells, respectively.
`C[C@H](Nc1nc(C(=O)N2CC[C@H](O)C2)c2sc(C(F)(F)F)cc2n1)c1cccnc1` [Example Z333, ((S)-3-Hydroxypyrrolidin-1-yl)(2-(((S)-1-(pyridin-3-yl)ethyl)amino)-6-(trifluoromethyl)thieno[3,2-d]pyrimidin-4-yl)methanone]: the Ratio at adenosine A2B receptor was 146.28. The IC50 on adenosine A2B receptor is 10 to 50 nM; on adenosine A2A receptor, more than 500 nM; against adenosine A1 receptor, more than 500 nM; at adenosine A3 receptor, more than 500 nM. The hepatocyte CLint in data set [2] stood at 25.7 µL/min/1e6 cells; in data set [3], 19.5 µL/min/1e6 cells.
